Data published in patent US6444617B1, “Fused-heterocycle dicarboxylic acid diamide derivatives or salts thereof, herbicide and usage thereof” (Nihon Nohyaku Co., Ltd., priority 1998, dated 2002).

Columns and labels:
Assay type in all cases: in vivo
[1] = test system: soybean plant; assay: Test Example 4: phytotoxicity to upland crop plants, treatment after emergence; conditions: dosage 5 kg/ha, sprayed after emergence, judged 14 days after treatment
Summary of the method: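 Upland weeds and crop plants (soybean, wheat) are grown from seed in soil until they reach given leaf stages, then treated by spraying with the compound-containing agent; effects are judged two weeks later.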

[2] = test system: wheat; assay: as above; conditions: dosage 5 kg/ha, sprayed after emergence, judged 14 days after treatment
Summary of the method: (§1)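 Post-emergence foliar spray, compound at prescribed concentration, applied at defined leaf stages; weeds plus soybean/wheat grown in soil vats. Read-out: weed-killing rate and crop injury, 14 d post-treatment.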

[3] = test system: barnyard grass (Echinochloa crus-galli Beauv.); assay: Test Example 2: herbicidal effect on paddy field weeds after emergence; conditions: Dosage 5 kg/ha; one-leaved stage; 21 days after treatment
Summary of the method: (§2)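 Weeds were sown in 1/10000 are pots of soil flooded to paddy conditions and grown to the one-leaf stage, then the soil was treated with a solution of compound at a predetermined dosage.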

[4] = test system: bulrush (Scirpus juncoides Roxb.); assay: as above; conditions: Dosage 5 kg/ha; one-leaved stage; 21 days after treatment
Summary of the method: as §2

[5] = test system: monochoria (Monochoria vaginalis Presl); assay: as above; conditions: Dosage 5 kg/ha; one-leaved stage; 21 days after treatment
Summary of the method: as §2

[6] = test system: velvetleaf (Abutilon theophtasti L.), At; assay: Test Example 3: herbicidal effect on upland weeds before emergence; conditions: dosage 5 kg/ha
Summary of the method: (§3)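 Read-out is the weed-killing rate, scored fourteen days after a single spray application made before the weeds emerged. The spray was a liquid agent carrying the active compound at a prescribed dose.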

[7] = test system: cleavers (Galium aparine L.), Ga; assay: as above; conditions: dosage 5 kg/ha
Summary of the method: as §3

[8] = test system: barnyard grass (Echinochloa crus-galli Beauv.), Ec; assay: as above; conditions: dosage 5 kg/ha
Summary of the method: as §3

[9] = test system: cocklebur (Xanthium strumarium L.), Xs; assay: as above; conditions: dosage 5 kg/ha
Summary of the method: as §3

[10] = test system: bird's eye speedwell (Veronica persica Poir.), Vp; assay: as above; conditions: dosage 5 kg/ha
Summary of the method: as §3

[11] = test system: forxtail grass (Alopecurus aequalis var. amurensis Ohwi), Am; assay: as above; conditions: foxtail grass, dosage 5 kg/ha
Summary of the method: as §3

[12] = test system: soybean plant (So); assay: Test Example 3: phytotoxicity to upland crop plants, treatment before emergence; conditions: dosage 5 kg/ha
Summary of the method: (§4)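 Pre-emergence spray, test compound at prescribed conc. in liquid formulation; crop injury (soybean, wheat) read at day 14, scored by criterion.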

[13] = test system: wheat (Wh); assay: as above; conditions: dosage 5 kg/ha
Summary of the method: as §4

[14] = test system: velvetleaf (Abutilon theophtasti L.), At; assay: Test Example 4: herbicidal effect on upland weeds after emergence; conditions: dosage 5 kg/ha; sprayed after emergence; judged 14 days after treatment
Summary of the method: as §1

[15] = test system: cleavers (Galium aparine L.), Ga; assay: as above; conditions: dosage 5 kg/ha; sprayed after emergence; judged 14 days after treatment
Summary of the method: as §1

[16] = test system: barnyard grass (Echinochloa crus-galli Beauv.), Ec; assay: as above; conditions: dosage 5 kg/ha; sprayed after emergence; judged 14 days after treatment
Summary of the method: as §1

[17] = test system: cocklebur (Xanthium strumarium L.), Xs; assay: as above; conditions: dosage 5 kg/ha; sprayed after emergence; judged 14 days after treatment
Summary of the method: as §1

[18] = test system: bird's eye speedwell (Veronica persica Poir.), Vp; assay: as above; conditions: dosage 5 kg/ha; sprayed after emergence; judged 14 days after treatment
Summary of the method: as §1

[19] = test system: forxtail grass (Alopecurus aequalis var. amurensis Ohwi), Am; assay: as above; conditions: dosage 5 kg/ha; sprayed after emergence; judged 14 days after treatment
Summary of the method: as §1

[20] = test system: barnyard grass (Echinochloa crus-galli Beauv.); assay: Test Example 1: herbicidal effect on paddy field weeds before emergence; conditions: Dosage 5 kg/ha
Summary of the method: (§5)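 Grading reflects percent control relative to untreated plots, evaluated three weeks post-application. Treatment was a soil application of compound solution, predetermined dose, made to paddy-state pots before weed seeds germinated.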

[21] = test system: bulrush (Scirpus juncoides Roxb.); assay: as above; conditions: Dosage 5 kg/ha
Summary of the method: as §5

| Compound | Phytotoxicity So [1] | Phytotoxicity Wh [2] | Post-emergence treatment Barnyard grass (herbicidal effect) [3] | Post-emergence treatment Bulrush (herbicidal effect) [4] | Post-emergence treatment Monochoria (herbicidal effect) [5] | Herbicidal effect At [6] | Herbicidal effect Ga [7] | Herbicidal effect Ec [8] | Herbicidal effect Xs [9] | Herbicidal effect Vp [10] | Herbicidal effect Am [11] | Phytotoxicity So [12] | Phytotoxicity Wh [13] | Herbicidal effect At [14] | Herbicidal effect Ga [15] | Herbicidal effect Ec [16] | Herbicidal effect Xs [17] | Herbicidal effect Vp [18] | Herbicidal effect Am [19] | Pre-emergence treatment Barnyard grass (herbicidal effect) [20] | further results |
| --- | --- | --- | --- | --- | --- | --- | --- | --- | --- | --- | --- | --- | --- | --- | --- | --- | --- | --- | --- | --- | --- |
| CCNC(=O)c1nc2ccn(OC)c2cc1C(=O)Nc1c(CC)ccc(Cl)c1CC [compound 894] | 4 (Crop-killing rate is 90-99%.) | 5 (Crop-killing rate is 100%.) | 5 (Weed-killing rate is 100%.) | 5 (Weed-killing rate is 100%.) | 5 (Weed-killing rate is 100%.) | 5 (Weed-killing rate is 100%.) | 5 (Weed-killing rate is 100%.) | 5 (Weed-killing rate is 100%.) | 5 (Weed-killing rate is 100%.) | 5 (Weed-killing rate is 100%.) | 5 (Weed-killing rate is 100%.) | 4 (Crop-killing rate is 90-99%.) | 5 (Crop-killing rate is 100%.) | 5 (Weed-killing rate is 100%.) | 5 (Weed-killing rate is 100%.) | 5 (Weed-killing rate is 100%.) | 4 (Weed-killing rate is 90-99%.) | 5 (Weed-killing rate is 100%.) | 5 (Weed-killing rate is 100%.) | 5 (Weed-killing rate is 100%.) | Pre-emergence treatment Bulrush (herbicidal effect) [21]: 5 (Weed-killing rate is 100%.) |
| CCCNC(=O)c1nc2ccn(OC)c2cc1C(=O)Nc1c(CC)ccc(Cl)c1CC [compound 895] | 4 (Crop-killing rate is 90-99%.) | 5 (Crop-killing rate is 100%.) | 5 (Weed-killing rate is 100%.) | 5 (Weed-killing rate is 100%.) | 5 (Weed-killing rate is 100%.) | 5 (Weed-killing rate is 100%.) | 5 (Weed-killing rate is 100%.) | 5 (Weed-killing rate is 100%.) | 5 (Weed-killing rate is 100%.) | 5 (Weed-killing rate is 100%.) | 5 (Weed-killing rate is 100%.) | 4 (Crop-killing rate is 90-99%.) | 5 (Crop-killing rate is 100%.) | 5 (Weed-killing rate is 100%.) | 5 (Weed-killing rate is 100%.) | 5 (Weed-killing rate is 100%.) | 5 (Weed-killing rate is 100%.) | 5 (Weed-killing rate is 100%.) | 5 (Weed-killing rate is 100%.) | 5 (Weed-killing rate is 100%.) | Pre-emergence treatment Bulrush (herbicidal effect) [21]: 5 (Weed-killing rate is 100%.) |
| CCCNC(=O)c1nc2ccn(C)c2cc1C(=O)Nc1c(CC)ccc(Cl)c1CC [compound 907] | 4 (Crop-killing rate is 90-99%.) | 5 (Crop-killing rate is 100%.) | 5 (Weed-killing rate is 100%.) | 5 (Weed-killing rate is 100%.) | 5 (Weed-killing rate is 100%.) | 5 (Weed-killing rate is 100%.) | 5 (Weed-killing rate is 100%.) | 5 (Weed-killing rate is 100%.) | 5 (Weed-killing rate is 100%.) | 5 (Weed-killing rate is 100%.) | 5 (Weed-killing rate is 100%.) | 4 (Crop-killing rate is 90-99%.) | 5 (Crop-killing rate is 100%.) | 5 (Weed-killing rate is 100%.) | 5 (Weed-killing rate is 100%.) | 5 (Weed-killing rate is 100%.) | 5 (Weed-killing rate is 100%.) | 5 (Weed-killing rate is 100%.) | 5 (Weed-killing rate is 100%.) | 5 (Weed-killing rate is 100%.) | Pre-emergence treatment Bulrush (herbicidal effect) [21]: 5 (Weed-killing rate is 100%.) |
| CCCNC(=O)c1nc2c(cc1C(=O)Nc1c(CC)ccc(Cl)c1CC)CCO2 [compound 919] | 5 (Crop-killing rate is 100%.) | 5 (Crop-killing rate is 100%.) | 5 (Weed-killing rate is 100%.) | 5 (Weed-killing rate is 100%.) | 5 (Weed-killing rate is 100%.) | 5 (Weed-killing rate is 100%.) | 5 (Weed-killing rate is 100%.) | 5 (Weed-killing rate is 100%.) | 5 (Weed-killing rate is 100%.) | 5 (Weed-killing rate is 100%.) | 5 (Weed-killing rate is 100%.) | 5 (Crop-killing rate is 100%.) | 5 (Crop-killing rate is 100%.) | 5 (Weed-killing rate is 100%.) | 5 (Weed-killing rate is 100%.) | 5 (Weed-killing rate is 100%.) | 5 (Weed-killing rate is 100%.) | 5 (Weed-killing rate is 100%.) | 5 (Weed-killing rate is 100%.) | 5 (Weed-killing rate is 100%.) | Pre-emergence treatment Bulrush (herbicidal effect) [21]: 5 (Weed-killing rate is 100%.) |
